Measured values as given in PMC3867265 (Science signaling, 2013).
Entries after “also recorded” stand apart in the source; their conditions may differ.

B1: mouse melatonin receptor type 1 (MT1), Rluc8 and YFP fusion proteins (receptor, UniProt Q61184 1-353, looked up)
chain: MKGNVSELLNATQQAPGGGEGGRPRPSWLASTLAFILIFTIVVDILGNLLVILSVYRNKKLRNSGNIFVVSLAVADLVVAVYPYPLVLTSILNNGWNLGYLHCQVSAFLMGLSVIGSIFNITGIAMNRYCYICHSLKYDKIYSNKNSLCYVFLIWMLTLIAIMPNLQTGTLQYDPRIYSCTFTQSVSSAYTIAVVVFHFIVPMIIVIFCYLRIWVLVLQVRRRVKPDNKPKLKPQDFRNFVTMFVVFVLFAICWAPLNLIGLIVASDPATMVPRIPEWLFVASYYLAYFNSCLNAIIYGLLNQNFRKEYKKIIVSLCTAKMFFVESSNEEADKIKCKPSPLIPNNNLIKVDSV
B3: mouse melatonin receptor type 2 (MT2), Rluc8 and YFP fusion proteins (receptor, UniProt Q8CIQ6 1-364, looked up)
chain: MPENSSIPNCCEASGLAARPSWSGSAGARPPVTARAPWVAPMLSTVVVVTTAVDFVGNLLVILSVLRNRKLRNAGNLFVVSLALADLVIALYPYPLILVAIIRDGWVLGEAHCKASAFVMGLSVIGSVFNITAIAINRYCCICHSTTYHRVCSHWYTPIYISLVWLLTLVALVPNFFVGSLEYDPRIYSCTFIQTASTQYTAAVVAIHFLLPMAVVSFCYLRIWVLVLQARRKAKATRKLRLRPSDLRSFLTMFAVFVVFAICWAPLNCIGLAVAINPEAMALQVPEGLFVTSYFLAYFNSCLNAIVYGLLNQNFRREYKRILLAIWNTRRCIQHASKHCLTEERQGPTPPAARATVPVKEGAL

What was measured:
MT1/MT2 heteromers [1] = target: T1, MT1/MT2 heteromers (Mus musculus, UniProt Q61184+Q8CIQ6); assay: cell-based
MT1 [2] = target: T2, MT1 (Mus musculus, UniProt Q61184); assay: cell-based
C3H-f+/+ mice [3] = assay: Scotopic; type: in vivo, mouse; settings: for effect on the melatonin-induced increase in the amplitude of the a- and b-wave: intravitreal antagonist, then melatonin i.p. 1 mg/kg; for amplitude of the a- and b-wave, compound alone: intravitreal injection alone, no melatonin
mouse photoreceptors = assay: Photoreceptor response; type: in vivo; settings: for effect on the melatonin-induced photoreceptor response (a-wave at 7 ms): intravitreal injection of the agent plus melatonin; for mimicking of the photoreceptor response to melatonin (a-wave at 7 ms): intravitreal injection of the agent
mouse MT1 receptor = mouse MT1 receptor (Mus musculus, UniProt Q61184); assay: Competition of 2-[125I]iodo-melatonin binding at mouse MT1; settings: mouse MT1, membranes of HEK293 cells
mouse MT2 receptor = target: T3, mouse MT2 receptor (Mus musculus, UniProt Q8CIQ6); assay: Competition of 2-[125I]iodo-melatonin binding at mouse MT2; settings: mouse MT2, membranes of HEK293 cells
T3 sequence (Q8CIQ6 1-364): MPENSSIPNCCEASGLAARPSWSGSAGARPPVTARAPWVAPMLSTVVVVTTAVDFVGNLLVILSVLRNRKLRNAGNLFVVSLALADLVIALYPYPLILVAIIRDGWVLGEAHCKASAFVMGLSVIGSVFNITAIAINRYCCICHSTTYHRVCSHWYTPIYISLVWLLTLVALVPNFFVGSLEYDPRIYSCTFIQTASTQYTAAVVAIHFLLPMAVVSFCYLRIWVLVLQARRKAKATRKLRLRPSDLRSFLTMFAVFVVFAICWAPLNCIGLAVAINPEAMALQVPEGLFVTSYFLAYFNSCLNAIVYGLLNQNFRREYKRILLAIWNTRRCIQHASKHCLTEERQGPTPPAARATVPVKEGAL

C3H-f+/+ mice [4] = settings: exogenous administration during the day, wild-type mice; cited from earlier work
MT1/MT2 heteromers [5] = target: T1, MT1/MT2 heteromers
[6] = target: wild-type MT1 receptor with the inactive MT2-P95L mutant (Mus musculus, UniProt Q61184); settings: cells coexpressing wild-type MT1 with inactive MT2-P95L mutant
MT1 [7] = target: T2, MT1; settings: HEK293T cells expressing MT1 alone
MT2-/- mice = assay: Scotopic; type: in vivo, mouse; settings: i.p. 1 mg/kg at ZT6, 1 h dark adaptation
MT1 [8] = target: T2, MT1; settings: HEK293T cells expressing MT1 alone, compared with MT1/MT2 heteromers
MT2 = target: T4, MT2 (Mus musculus, UniProt Q8CIQ6); assay: Inositol phosphate production, HEK293T cells expressing MT2 alone; type: cell-based
T4 sequence (Q8CIQ6 1-364): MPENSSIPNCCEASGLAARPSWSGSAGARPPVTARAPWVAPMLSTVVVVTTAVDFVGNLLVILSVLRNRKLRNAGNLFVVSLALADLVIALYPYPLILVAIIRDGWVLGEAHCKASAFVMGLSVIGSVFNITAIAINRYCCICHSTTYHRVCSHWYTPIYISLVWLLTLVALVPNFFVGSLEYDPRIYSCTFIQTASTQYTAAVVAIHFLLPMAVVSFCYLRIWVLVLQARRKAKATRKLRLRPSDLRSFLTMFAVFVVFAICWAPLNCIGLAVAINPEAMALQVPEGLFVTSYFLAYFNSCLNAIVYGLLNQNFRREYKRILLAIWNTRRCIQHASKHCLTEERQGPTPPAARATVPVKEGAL

MT1 and MT2 receptors = MT1 and MT2 receptors (Mus musculus, UniProt Q61184+Q8CIQ6)
FRET or BRET = target: the molecule itself; assay: FRET or BRET
[9] = target: B1; assay: FRET or BRET
[10] = target: B3; assay: FRET or BRET

Molecule: CCC(=O)N[C@@H]1Cc2ccccc2[C@H](c2ccccc2)C1 (relative stereo) [4P-PDOT, cis-4-Phenyl-2-propionamidotetralin]
- IC50 (MT1/MT2 heteromers [1]): 4 ± 3.5 nM
- IC50 (MT1 [2]): 5.8 ± 7.7 nM
- effect on the melatonin-induced increase in the amplitude of the a- and b-wave (C3H-f+/+ mice [3]): prevented the increase
- amplitude of the a- and b-wave, compound alone (C3H-f+/+ mice [3]): did not produce any significant changes

Molecule: Nc1ncnc2c1nc(Br)n2[C@@H]1O[C@@H]2COP(=O)(O)O[C@H]2[C@H]1O [8-br-cAMP, 8-bromoadenosine 3′,5′-cyclic monophosphate]
- effect on the melatonin-induced photoreceptor response (a-wave at 7 ms) (mouse photoreceptors): had no effect

Molecule: Cl.NC(CSSCC(N)C(=O)N1CCn2cc(-c3ccccc3)nc2C1CC1CCCCC1)C(=O)N1CCn2cc(-c3ccccc3)nc2C1CC1CCCCC1 (stereo not drawn) [BIM 46187, 7-[2-amino-1-oxo-3-thio-propyl]-8-cyclohexylmethyl-2-phenyl-5,6,7,8-tetrahydro-i midazo-[1,2a]-pyrazine dimer, hydrochloride]
- effect on the melatonin-induced photoreceptor response (a-wave at 7 ms) (mouse photoreceptors): inhibited

Molecule: CN1CCCC1CCn1cc(C2=C(c3c[nH]c4ccccc34)C(=O)NC2=O)c2ccccc21 (stereo not drawn) [Bisl, Bisindolylmaleimide II]
- block of the effect of exogenous melatonin on photoreceptors (mouse photoreceptors; intravitreal PKC inhibitor plus melatonin): about 40%

Molecule: Cl.Cl.O=S(=O)(NCCNC/C=C/c1ccc(Br)cc1)c1cccc2cnccc12 [H89, H-89 dihydrochloride hydrate]
- mimicking of the photoreceptor response to melatonin (a-wave at 7 ms) (mouse photoreceptors): did not mimic
- effect on the melatonin-induced photoreceptor response (a-wave at 7 ms) (mouse photoreceptors): did not affect

Molecule: CCCC(=O)NCCc1c2n(c3ccc(OC)cc13)Cc1ccccc1-2 [IIK7]
- amplitude of the a- or b-wave (C3H-f+/+ mice [3]; intravitreal 50 nM (MT2-selective concentration), C3H-f+/+ mice): did not increase
- amplitude of the a- and b-wave (C3H-f+/+ mice [3]; intravitreal 5 μM (activates MT1 and MT2), C3H-f+/+ mice): significantly increased
- Ki (mouse MT1 receptor): 73 ± 23 nM
- Ki (mouse MT2 receptor): 0.052 ± 0.015 nM

Molecule: CCCCCCCCCCCCCC(=O)O[C@@H]1[C@@H](C)[C@@]2(O)[C@@H](C=C(CO)C[C@]3(O)C(=O)C(C)=C[C@@H]23)[C@@H]2C(C)(C)[C@]12OC(C)=O [PMA, Phorbol 12-myristate 13-acetate]
- mimicking of the photoreceptor response to melatonin (a-wave at 7 ms) (mouse photoreceptors): mimicked
- effect on the melatonin-induced photoreceptor response (a-wave at 7 ms) (mouse photoreceptors): significantly reduced

Molecule: CC(=O)NCCc1c(Cc2ccccc2)[nH]c2ccccc12 [luzindole]
- effect on the melatonin-induced increase in the amplitude of the a- and b-wave (C3H-f+/+ mice [3]): prevented the increase
- amplitude of the a- and b-wave, compound alone (C3H-f+/+ mice [3]): did not produce any significant changes

Molecule: COc1ccc2[nH]cc(CCNC(C)=O)c2c1 [melatonin]
- photoreceptor response (a-wave at 7 ms) (mouse photoreceptors; exogenous melatonin, ZT 6): significantly increased
- amplitudes of a- and b-waves of the scotopic ERG (C3H-f+/+ mice [4]): increases the amplitudes
- PKC activity (MT1/MT2 heteromers [5]; HEK293T cells expressing MT1/MT2 heteromers, increasing concentrations): dose-dependently increased
- PKC activity with coexpressed MT2-P95L (MT1/MT2 heteromers [5]; MT1/MT2 heteromers plus dominant negative MT2-P95L mutant, 100 nM melatonin): potently inhibited
- inositol phosphate production, result in words [6]: completely abolished
- inositol phosphate production, result in words (MT1 [7]): inactive; also recorded: only at supra-physiological melatonin amount
- changes in the dark-adapted ERG (MT2-/- mice): did not produce any changes
- PKC activity (MT1 [8]): less potently
- EC50 (MT2): 51 nM
- inositol phosphate production, result in words (MT2; HEK293T cells expressing MT2 alone): unable to modulate this pathway
- inhibition of cAMP production (MT1 and MT2 receptors): not impaired but rather improved

Molecule: B1
- BRET50 (FRET or BRET): 0.71

B2: mouse MT2-P95L mutant, Rluc8 and YFP fusion proteins (receptor, UniProt Q8CIQ6 1-364, looked up)
chain: MPENSSIPNCCEASGLAARPSWSGSAGARPPVTARAPWVAPMLSTVVVVTTAVDFVGNLLVILSVLRNRKLRNAGNLFVVSLALADLVIALYPYLLILVAIIRDGWVLGEAHCKASAFVMGLSVIGSVFNITAIAINRYCCICHSTTYHRVCSHWYTPIYISLVWLLTLVALVPNFFVGSLEYDPRIYSCTFIQTASTQYTAAVVAIHFLLPMAVVSFCYLRIWVLVLQARRKAKATRKLRLRPSDLRSFLTMFAVFVVFAICWAPLNCIGLAVAINPEAMALQVPEGLFVTSYFLAYFNSCLNAIVYGLLNQNFRREYKRILLAIWNTRRCIQHASKHCLTEERQGPTPPAARATVPVKEGAL
- BRET50 (FRET or BRET): 2.61
- BRET50 [9]: 3.48
- BRET50 [10]: 1.52

Molecule: B3
- BRET50 [9]: 1.67
